Source: US7521395B2, “Synergistically acting herbicidal mixtures” (BASF Aktiengesellschaft, priority 2002, dated 2009)

Assays:
Assay in all cases: Herbicidal action, post-emergence treatment, field trial
Type in all cases: in vivo
Conditions in all cases: application rate 1250 g/ha ai, scale 0 = no damage, 100 = complete destruction
Tagetes minuta = system: Tagetes minuta
From the text: (§1) The mixtures according to the invention were applied pre- or post-emergence (foliar treatment). The herbicidal compounds of component B and of component C were applied in the formulation in which they are present as commercially available product.
(§2) The herbicidally active compounds of components A), B) and C) were applied in succession or jointly, in the latter case in some cases as a tank mix and in some cases as a readymix, in the form of emulsions, aqueous solutions or suspensions, the vehicle being water (300-400 l/ha). In the case of the field trials, application was effected with the aid of a mobile plot sprayer.
(§3) The test period extended over 3 to 8 weeks, and the stands were also observed at later points in time.
(§4) Damage by the herbicidal compositions was evaluated with reference to a scale of 0% to 100% in comparison with untreated control plots. 0 means no damage and 100 means complete destruction of the plants.
(§5) In these examples, the value E at which only an additive effect of the individual active ingredients is to be expected was calculated by the method of S. R. Colby (Calculating synergistic and antagonistic responses of herbicide combinations, Weeds 15, 20 pp (1967)).
(§6) This was done using the formula
(§7) [formula] where • X=Percentage of the herbicidal action of component X) at an application rate of x; • Y=Percentage of the herbicidal action of component Y) at an application rate of y; • E=expected herbicidal action of component X)+Y) at rates of application x+y (in %).
(§8) If the value observed exceeds the value E calculated in accordance with Colby's formula, then synergism is present.

Anoda cristata = system: Anoda cristata
From the text: as §1, §2, §3, §4, §5, §6, §7, §8

Sorghum halepense = system: Sorghum halepense
From the text: as §1, §2, §3, §4, §5, §6, §7, §8

For `CCNc1nc(Cl)nc(NC(C)C)n1` [atrazine], the “Tagetes minuta Damage [%]” value (Tagetes minuta) was 50%, the “Anoda cristata Damage [%]” value (Anoda cristata) was 70% and the “Sorghum halepense Damage [%]” value (Sorghum halepense) was 10%.
